In patent US7674801B2 (AstraZeneca AB, priority 2006, dated 2010):

Molecular target: S. aureus (SAU) GyrB ATPase (Staphylococcus aureus, UniProt P0A0K8)
Assay: S. aureus GyrB ATPase inhibition, ammonium molybdate/malachite green phosphate detection assay
Type: biochemical
Details: read-out: S. aureus (SAU) GyrB ATPase % Inhibition, compound concentration 12.5 μM
Description: Compounds were tested for inhibition of GyrB ATPase activity using an ammonium molybdate/malachite green-based phosphate detection assay (Lanzetta, P. A., L. J. Alvarez, P. S. Reinach, and O. A. Candia, 1979, 100: 95-97). Assays were performed in multiwell plates in 100 μl reactions containing: 50 mM Hepes buffer pH 7.5, 75 mM ammonium acetate, 8.0 mM magnesium chloride, 1.0 mM ethylenediaminetetraacetic acid, 5% glycerol, 2 mM 1,4-Dithio-DL-threitol, 400 nM bovine serum albumin, 5 μg/ml sheared salmon sperm DNA, 1.25 nM E. coli GyrA, 1.25 nM S. aureus GyrB, 500 μM ATP, and compound in dimethylsulfoxide. Reactions were quenched with 150 μl of ammonium molybdate/malachite green detection reagent containing 1.2 mM malachite green hydrochloride, 8.5 mM ammonium molybdate tetrahydrate, and 1 M hydrochloric acid. Plates were read in an absorbance plate reader at 650 nm and percent inhibition values were calculated using dimethylsulfoxide (2%)-containing reactions as 0% inhibition and novobiocin-containing (2 μM) reactions as 100% inhibition controls. Compound potency was based on IC50 measurements determined from reactions performed in the presence of 10 different compound concentrations.

S. aureus (SAU) GyrB ATPase, sequence (P0A0K8 whole entry): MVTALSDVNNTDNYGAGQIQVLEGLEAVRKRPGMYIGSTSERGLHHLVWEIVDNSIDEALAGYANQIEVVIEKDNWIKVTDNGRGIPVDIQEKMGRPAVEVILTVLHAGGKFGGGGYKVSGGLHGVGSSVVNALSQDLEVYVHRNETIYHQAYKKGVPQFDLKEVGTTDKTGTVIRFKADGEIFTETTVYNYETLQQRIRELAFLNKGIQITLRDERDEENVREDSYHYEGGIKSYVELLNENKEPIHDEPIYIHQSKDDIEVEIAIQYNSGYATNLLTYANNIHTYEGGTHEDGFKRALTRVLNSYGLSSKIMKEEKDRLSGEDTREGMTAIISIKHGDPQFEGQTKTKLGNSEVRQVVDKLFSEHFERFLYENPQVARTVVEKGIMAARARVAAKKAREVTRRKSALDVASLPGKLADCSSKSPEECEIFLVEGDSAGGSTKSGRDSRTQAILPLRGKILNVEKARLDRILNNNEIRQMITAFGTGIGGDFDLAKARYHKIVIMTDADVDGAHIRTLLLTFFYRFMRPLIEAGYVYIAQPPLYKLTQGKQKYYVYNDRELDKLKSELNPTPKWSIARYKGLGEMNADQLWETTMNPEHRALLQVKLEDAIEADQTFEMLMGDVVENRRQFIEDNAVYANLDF
S. aureus (SAU) GyrB ATPase, sequence (P0AES4 whole entry, further chain): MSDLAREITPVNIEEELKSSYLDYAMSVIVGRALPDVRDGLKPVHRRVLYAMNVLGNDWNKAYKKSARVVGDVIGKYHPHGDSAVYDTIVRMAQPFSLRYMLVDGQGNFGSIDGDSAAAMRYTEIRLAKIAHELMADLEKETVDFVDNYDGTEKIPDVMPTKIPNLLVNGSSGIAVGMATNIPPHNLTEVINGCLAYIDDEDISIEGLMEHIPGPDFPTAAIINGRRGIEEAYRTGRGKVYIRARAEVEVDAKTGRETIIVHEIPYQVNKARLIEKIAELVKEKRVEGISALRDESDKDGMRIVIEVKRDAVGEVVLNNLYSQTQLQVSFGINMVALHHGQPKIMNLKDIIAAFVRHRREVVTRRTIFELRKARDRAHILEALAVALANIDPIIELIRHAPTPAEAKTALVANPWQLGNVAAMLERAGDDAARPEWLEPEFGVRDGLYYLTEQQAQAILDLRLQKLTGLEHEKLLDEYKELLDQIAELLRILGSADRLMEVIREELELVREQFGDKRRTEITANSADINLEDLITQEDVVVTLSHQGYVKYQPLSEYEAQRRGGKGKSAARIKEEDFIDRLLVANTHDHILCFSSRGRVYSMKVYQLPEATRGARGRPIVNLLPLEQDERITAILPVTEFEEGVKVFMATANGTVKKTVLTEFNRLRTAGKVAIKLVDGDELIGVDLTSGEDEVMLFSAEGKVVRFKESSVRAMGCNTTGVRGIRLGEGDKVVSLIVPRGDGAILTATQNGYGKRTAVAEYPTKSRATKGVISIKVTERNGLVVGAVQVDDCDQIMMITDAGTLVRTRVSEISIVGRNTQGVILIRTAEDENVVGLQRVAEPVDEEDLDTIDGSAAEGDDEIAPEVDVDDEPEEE

SMILES	inhibition at 12.5 µM
CCNC(=O)Nc1cc(-c2nc(CC)cs2)c(-c2cncc(C(=O)O)c2)cn1 [Example 99, 6′-{[(Ethylamino)carbonyl]amino}-4′-(4-ethyl-1,3-thiazol-2-yl)-3,3′-bipyridine-5-carboxylic acid]	102%
CCNC(=O)Nc1cc(-c2nc(CC)cs2)c(-c2cccc(C(=O)O)c2)cn1 [Example 100, 3-[6-{[(Ethylamino)carbonyl]amino}-4-(4-ethyl-1,3-thiazol-2-yl)pyridin-3-yl]benzoic acid]	99.7%
CCNC(=O)Nc1cc(-c2nc(C(F)(F)F)cs2)c(-c2cncc(C(=O)O)c2)cn1 [Example 101, 6′-{[(Ethylamino)carbonyl]amino}-4′-[4-(trifluoromethyl)-1,3-thiazol-2-yl]-3,3′-bipyridine-5-carboxylic acid]	98.3%
CCNC(=O)Nc1cc(-c2nc(C(F)(F)F)cs2)c(-c2ncc(C(=O)O)s2)cn1 [Example 102, 2-{6-{[(Ethylamino)carbonyl]amino}-4-[4-(trifluoromethyl)-1,3-thiazol-2-yl]pyridin-3-yl}-1,3-thiazole-5-carboxylic acid]	98.2%
CCNC(=O)Nc1cc(-c2cccnc2)c(-c2cncc(C(=O)O)c2)cn1 [Example 103, 6′-{[(Ethylamino)carbonyl]amino}-3,3′:4′,3″-terpyridine-5-carboxylic acid]	96%
CCNC(=O)Nc1cc(-c2ccc(F)nc2)c(-c2cncc(C(=O)O)c2)cn1 [Example 104]	89.9%
CC(C)NC(=O)Nc1cc(-c2nc(C(F)(F)F)cs2)c(-c2cncc(C(=O)O)c2)cn1 [Example 105, 6′-{[(Isopropylamino)arbonyl]amino}-4′-[4-(trifluoromethyl)-1,3-thiazol-2-yl]-3,3′-bipyridine-5-carboxylic acid]	94.8%
CCC(C)NC(=O)Nc1cc(-c2nc(C(F)(F)F)cs2)c(-c2cncc(C(=O)O)c2)cn1 (centres unmarked) [Example 106, 6′-{[(Sec-butylamino)carbonyl]amino}-4′-[4-(trifluoromethyl)-1,3-thiazol-2-yl]-3,3′-bipyridine-5-carboxylic acid]	93.1%
CCNC(=O)Nc1cc(-c2nc(CC)cs2)c(-c2cncc(C(=O)NC)c2)cn1 [Example 107, 6′-{[(Ethylamino)carbonyl]amino}-4′-(4-ethyl-1,3-thiazol-2-yl)-N-methyl-3,3′-bipyridine-5-carboxamide]	84%
CCCCNC(=O)c1nc(-c2ccc(NC(=O)NCC)nc2)sc1C(=O)NC [Example 108, N^4-Butyl-2-(6-{[(ethylamino)carbonyl]amino}pyridin-3-yl)-N^5-methyl-1,3-thiazole-4,5-dicarboxamide]	100%
CCCCNC(=O)c1nc(-c2ccc(NC(=O)NCC)nc2)sc1C(=O)N(C)C [Example 109, N^4-Butyl-2-(6-{[(ethylamino)carbonyl]amino}pyridin-3-yl)-N^5,N^5-dimethyl-1,3-thiazole-4,5-dicarboxamide]	99.5%
CCNC(=O)Nc1ccc(-c2nc(C(=O)NC(C)(C)C)c(C(=O)N(C)C)s2)cn1 [Example 110, N^4-(tert-Butyl)-2-(6-{[(ethylamino)carbonyl]amino}pyridin-3-yl)-N^5,N^5-dimethyl-1,3-thiazole-4,5-dicarboxamide]	101%
CCNC(=O)Nc1ccc(-c2nc(C(=O)NC(C)(C)C)c(C(N)=O)s2)cn1 [Example 111, N^4-(tert-Butyl)-2-(6-{[(ethylamino)carbonyl]amino}pyridin-3-yl)-1,3-thiazole-4,5-dicarboxamide]	101%
CCNC(=O)Nc1ccc(-c2nc(-c3nccn3C)c(C(=O)N(C)C)s2)cn1 [Example 112, 2-(6-{[(Ethylamino)carbonyl]amino}pyridin-3-yl)-N,N-dimethyl-4-(1-methyl-1H-imidazol-2-yl)-1,3-thiazole-5-carboxamide]	99.9%
CCNC(=O)Nc1ccc(-c2nc(-c3ncnn3C)c(C(=O)N(C)C)s2)cn1 [Example 113, 2-(6-{[(Ethylamino)carbonyl]amino}pyridin-3-yl)-N,N-dimethyl-4-(1-methyl-1H-1,2,4-triazol-5-yl)-1,3-thiazole-5-carboxamide]	102%
CCNC(=O)Nc1cc(-c2ccccc2)c(-c2cncc(C(N)=O)c2)cn1 [Example 114, 6′-{[(Ethylamino)carbonyl]amino}-4′-phenyl-3,3′-bipyridine-5-carboxamide]	105%

SMILES	inhibition at 12.5 µM
CCNC(=O)Nc1ccc(-c2nc(C(=O)NC)c(C(N)=O)s2)cn1 [Example 115, 2-(6-{[(Ethylamino)carbonyl]amino}pyridin-3-yl)-N^4-methyl-1,3-thiazole-4,5-dicarboxamide]	99.2%
CCNC(=O)Nc1ccc(-c2nc(C(=O)NCCOC)c(C(N)=O)s2)cn1 [Example 116, 2-(6-{[(Ethylamino)carbonyl]amino}pyridin-3-yl)-N^4-(2-methoxyethyl)-1,3-thiazole-4,5-dicarboxamide]	98.7%
CCNC(=O)Nc1ccc(-c2nc(C(=O)N[C@@H](C)COC)c(C(N)=O)s2)cn1 [Example 117, 2-(6-{[(Ethylamino)carbonyl]amino}pyridin-3-yl)-N^4-[(1S)-2-methoxy-1-methylethyl]-1,3-thiazole-4,5-dicarboxamide]	101%
CCNC(=O)Nc1ccc(-c2nc(C(=O)N[C@@H](C)COC)c(C(=O)N(C)C)s2)cn1 [Example 118, 2-(6-{[(Ethylamino)carbonyl]amino}pyridin-3-yl)-N^4-[(1S)-2-methoxy-1-methylethyl]-N^5,N^5-dimethyl-1,3-thiazole-4,5-dicarboxamide]	102%
CCNC(=O)Nc1cc(-c2nc(CC)cs2)c(-c2cncc(C(N)=O)c2)cn1 [Example 119, 6′-{[(Ethylamino)carbonyl]amino}-4′-(4-ethyl-1,3-thiazol-2-yl)-3,3′-bipyridine-5-carboxamide]	103%
CCNC(=O)Nc1cc(-c2nc(C(F)(F)F)cs2)c(-c2cncc(C(N)=O)c2)cn1 [Example 121, 6′-{[(Ethylamino)carbonyl]amino}-4′-[4-(trifluoromethyl)-1,3-thiazol-2-yl]-3,3′-bipyridine-5-carboxamide]	81.8%
CCNC(=O)Nc1cc(-c2nc(C(F)(F)F)cs2)c(-c2cncc(C(=O)NC)c2)cn1 [Example 122, 6′-{[(Ethylamino)carbonyl]amino}-N-methyl-4′-[4-(trifluoromethyl)-1,3-thiazol-2-yl]-3,3′-bipyridine-5-carboxamide]	85.8%
CCNC(=O)Nc1cc(-c2nc(C(F)(F)F)cs2)c(-c2cncc(C(=O)NC(C)(C)C)c2)cn1 [Example 123, N-(tert-Butyl)-6′-{[(ethylamino)carbonyl]amino}-4′-[4-(trifluoromethyl)-1,3-thiazol-2-yl]-3,3′-bipyridine-5-carboxamide]	96.2%
CCNC(=O)Nc1cc(-c2nc(C(F)(F)F)cs2)c(-c2cncc(C(=O)N[C@@H](C)COC)c2)cn1 [Example 124, 6′-{[(Ethylamino)carbonyl]amino}-N-[(1S)-2-methoxy-1-methylethyl]-4′-[4-(trifluoromethyl)-1,3-thiazol-2-yl]-3,3′-bipyridine-5-carboxamide]	95.1%
CCNC(=O)Nc1cc(-c2nc(C(F)(F)F)cs2)c(-c2cncc(C(=O)NC3CCCC3)c2)cn1 [Example 125, N-Cyclopentyl-6′-{[(ethylamino)carbonyl]amino}-4′-[4-(trifluoromethyl)-1,3-thiazol-2-yl]-3,3′-bipyridine-5-carboxamide]	107%
CCNC(=O)Nc1cc(-c2nc(C(F)(F)F)cs2)c(-c2cncc(C(=O)NC3CC3)c2)cn1 [Example 126, N-Cyclopropyl-6′-{[(ethylamino)carbonyl]amino}-4′-[4-(trifluoromethyl)-1,3-thiazol-2-yl]-3,3′-bipyridine-5-carboxamide]	96.2%
CCNC(=O)Nc1cc(-c2nc(C(F)(F)F)cs2)c(-c2ncc(C(=O)NC)s2)cn1 [Example 127, 2-{6-{[(Ethylamino)carbonyl]amino}-4-[4-(trifluoromethyl)-1,3-thiazol-2-yl]pyridin-3-yl}-N-methyl-1,3-thiazole-5-carboxamide]	97%
CCNC(=O)Nc1cc(-c2ccc(F)nc2)c(-c2cncc(C(N)=O)c2)cn1 [Example 128, 6′-{[(Ethylamino)carbonyl]amino}-6″-fluoro-3,3′:4′,3″-terpyridine-5-carboxamide]	91.5%
CNC(=O)c1cncc(-c2cnc(NC(=O)NC(C)C)cc2-c2nc(C(F)(F)F)cs2)c1 [Example 129, 6′-{[(Isopropylamino)carbonyl]amino}-N-methyl-4′-[4-(trifluoromethyl)-1,3-thiazol-2-yl]-3,3′-bipyridine-5-carboxamide]	100%
CCC(C)NC(=O)Nc1cc(-c2nc(C(F)(F)F)cs2)c(-c2cncc(C(=O)NC)c2)cn1 (centres unmarked) [Example 130, 6′-{[(Sec-butylamino)carbonyl]amino}-N-methyl-4′-[4-(trifluoromethyl)-1,3-thiazol-2-yl]-3,3′-bipyridine-5-carboxamide]	98.7%
CCNC(=O)Nc1nc(-c2cccc(C(=O)OC)c2)cs1 [Example 134, methyl 3-(2-{[(ethylamino)carbonyl]amino}-1,3-thiazol-4-yl)benzoate]	7.09%
